The source made the active and inactive calls.
Columns and labels:
[1] = biological target: Heat shock protein HSP 90-alpha (Homo sapiens, UniProt P07900); type: functional, organism-based
[2] = MC4R antagonists, dose response, counter-screen for LGR2 antagonist project, cell-based, plate reader, cherry pick (AID 743444); type: functional;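 also: transfected HEK 293 cells stimulated with alpha-MSH peptide; potency of inhibitors of the alpha-MSH evoked signal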
[3] = inhibitors of HIV Env-driven cell fusion, dose response, cherry-pick (AID 652057); type: functional, cell-based
[4] = system: INS1; experiment: beta cell apoptosis inhibitors, cytokine rescue, dose response, luminescence, retest (AID 449756); type: functional, cell-based; conditions: Rattus norvegicus;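 also: cell death triggered by IL-1 beta plus TNF-alpha plus IFN-gamma mixture; protective hits raise ATP signal compared with cytokine alone wells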
[5] = system: BJ; experiment: cells; type: functional, cell-based; conditions: Homo sapiens
[6] = non-specific cell cytotoxicity, dose response, cytotoxicity control for PAX8 inhibitor project, plate reader, dry powder samples (AID 743021); type: functional, cell-based
[7] = biological target: Paired box protein Pax-8 (Homo sapiens, UniProt Q06710); experiment: inhibitors of PAX8-driven TPO luciferase reporter, dose response, RMG-I cells, cherry-pick (AID 687027); type: functional, cell-based;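 also: luciferase reporter driven by Pax8 target thyroperoxidase promoter measured by SteadyGlo luminescence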
[8] = inhibitors of clade B AD8 Env fusion, dose response, cell-based, cherry-pick (AID 652062); type: functional;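 also: luciferase signal from cell-cell fusion driven by HIV-1 clade B AD8 Env; potency is for inhibitors of fusion seen as a drop in luminescence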
[9] = CEM21 lymphoblast cell cytotoxicity, dose response, cytotoxicity control for viral fusion inhibitor project, CellTiter-Glo luminescence, cherry-picked (AID 652042); type: functional, cell-based;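 also: potency for signal decrease meaning cytotoxicity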
[10] = ZM109 Env clade C HIV-1 fusion inhibitors, dose response, HeLa effector, CEM target cells, luciferase, cherry-pick (AID 652058); type: functional, cell-based
[11] = cytotoxicity toward DRD oncogenic fibroblasts, dose response, cell-based, non-viral oncogenic, luminescence (AID 1934); type: functional; conditions: Homo sapiens
[12] = system: BJ; experiment: cytotoxicity toward BJ-TERT-LT-ST fibroblasts, dose response, cell-based, RAS-independent, luminescence (AID 1935); type: functional; conditions: Homo sapiens;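 also: BJ fibroblasts immortalized with TERT plus LT and ST oncogenes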
[13] = system: Jurkat; experiment: antigen receptor-induced NF-kB inhibitors, dose response, Jurkat, luciferase reporter, luminescence, B- and T-cell (AID 489004); type: functional, cell-based; conditions: Homo sapiens;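 also: NF-kB luciferase reporter Jurkat cells stimulated with PMA plus ionomycin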
[14] = HepG2 cell cytotoxicity, dose response, cytotoxicity control for Shn3 inhibitor project, CellTiter-Glo, cherry-picked (AID 624134); type: functional, cell-based
[15] = HepG2 cell cytotoxicity, dose response, cytotoxicity control, plate reader, cherry-pick, antagonist series (AID 743416); type: functional, cell-based
[16] = A549 cell cytotoxicity, dose response, cytotoxicity control, plate reader, cherry-pick, antagonist series (AID 743412); type: functional, cell-based
[17] = system: BJ; experiment: cytotoxicity toward Ras-transformed BJeLR fibroblasts, dose response, cell-based, alamar blue fluorescence, cherrypicked samples (AID 2631); type: functional; conditions: Homo sapiens;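 also: confirmatory dose-response assay in RAS-dependent BJ fibroblasts engineered with TERT, LT and ST, with cytotoxicity read by fluorescence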
[18] = system: BJ; experiment: cytotoxicity toward BJ-TERT fibroblasts, dose response, cell-based, RAS-independent, luminescence (AID 1933); type: functional; conditions: Homo sapiens
[19] = biological target: Luciferin 4-monooxygenase (Photinus pyralis, UniProt P08659); experiment: firefly luciferase enzyme inhibitors, dose response, biochemical, luminescence (AID 1891)
[20] = Luminescence Cell-Based Dose Confirmation HTS to Identify Inhibitors of Platelet Dense Granule Release. [Related pubchem assays: 1663 (Primary HTS), 1678 (Summary of Project)]; type: functional
[21] = cytotoxicity in HEK-293T NF-kB-Luc cells, dose response, cytotoxicity control for B/T-cell NF-kB inhibitor project, cell-based, uHTS hits (AID 489019); type: functional;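 also: IC50 reflects cytotoxicity as loss of cell viability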
[22] = HEK293 cell cytotoxicity, dose response, cytotoxicity control, plate reader, cherry-picked samples (AID 743446); type: functional, cell-based
[23] = LGR2 antagonists, dose response, cell-based, HEK293, CRE-luciferase reporter, cherry pick, set 2 (AID 743343); type: functional;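 also: transfected cells were stimulated with diluted bursicon conditioned medium after compound addition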
[24] = Shn3 3'UTR reporter inhibitors, dose response, cell-based, Clone20 osteoblasts, firefly luciferase, cherry-picked (AID 624132); type: functional;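 also: firefly luciferase luminescence from reporter carrying the Shn3 3'UTR in osteoblasts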
[25] = biological target: Photoreceptor-specific nuclear receptor (Homo sapiens, UniProt Q9Y5X4); type: functional, cell-based;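 also: CHO-S cells with Gal4-NCOR and VP16-NR2E3 two-hybrid luciferase reporter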
[26] = off-target signal loss in HeLa-CEM21 co-culture – HeLa F-luc CTL cells, cherry-picked, counter-screen for HIV-1 Env fusion inhibitor project, dose response (AID 652040); type: functional, cell-based;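 also: potency for signal decrease marking cytotoxic or nonspecific inhibition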
[27] = system: INS1; experiment: protection of INS-1E cells from cytokine death, dose response, ATP luminescence, dry powder (AID 488844); type: functional, cell-based; conditions: Rattus norvegicus
[28] = biological target: T1, Ubiquitin-conjugating enzyme E2 N (Homo sapiens, UniProt P61088); type: functional;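 also: Dose-response confirmation in a TR-FRET assay detecting UBC13-driven polyubiquitin chain formation, inhibition measured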
T1 sequence (P61088 whole entry): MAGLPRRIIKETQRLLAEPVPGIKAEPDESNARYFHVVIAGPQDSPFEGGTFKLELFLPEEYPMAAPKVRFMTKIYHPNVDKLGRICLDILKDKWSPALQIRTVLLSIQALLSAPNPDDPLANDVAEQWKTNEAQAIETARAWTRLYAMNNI

[29] = biological target: Lysine-specific demethylase 4A (Homo sapiens, UniProt O75164); experiment: JMJD2A histone demethylase inhibitors, dose response, selectivity assay for GASC-1 inhibitor project, biochemical, DELFIA europium, cherry-picked samples (AID 488840)
[30] = system: Escherichia coli; experiment: microbe, parasite or virus in culture
[31] = system: Escherichia coli; experiment: microbe, parasite or virus in culture; remark: listed apart in the source
[32] = biological target: Nuclear receptor subfamily 0 group B member 1 (Homo sapiens, UniProt P51843); experiment: Luminescence-based cell-based high throughput dose response assay for inhibitors of the orphan nuclear receptor subfamily 0, group B, member 1 (DAX1; NR0B1). [Related pubchem assays (depositor defined):AID504766, AID504790]; type: functional
[33] = system: HEK293; experiment: cells; type: functional, cell-based; conditions: Homo sapiens
[34] = cytotoxicity in HMLE control line with eGFP shRNA, dose response, counter-screen for HMLE_sh_ECad selective toxicity project, cell-based, HMLE_sh_eGFP, luminescence (AID 463074); type: functional, Homo sapiens;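 also: HMLE human mammary epithelial cells expressing control shRNA against eGFP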
[35] = Luminescence Cell-Based Dose Retest to Confirm Inhibitors of Cancer Stem Cells. [Related pubchem assays (depositor defined):AID2717, AID2721]; type: functional; conditions: Homo sapiens

Nuclear receptor subfamily 0 group B member 1, sequence (P51843 whole entry): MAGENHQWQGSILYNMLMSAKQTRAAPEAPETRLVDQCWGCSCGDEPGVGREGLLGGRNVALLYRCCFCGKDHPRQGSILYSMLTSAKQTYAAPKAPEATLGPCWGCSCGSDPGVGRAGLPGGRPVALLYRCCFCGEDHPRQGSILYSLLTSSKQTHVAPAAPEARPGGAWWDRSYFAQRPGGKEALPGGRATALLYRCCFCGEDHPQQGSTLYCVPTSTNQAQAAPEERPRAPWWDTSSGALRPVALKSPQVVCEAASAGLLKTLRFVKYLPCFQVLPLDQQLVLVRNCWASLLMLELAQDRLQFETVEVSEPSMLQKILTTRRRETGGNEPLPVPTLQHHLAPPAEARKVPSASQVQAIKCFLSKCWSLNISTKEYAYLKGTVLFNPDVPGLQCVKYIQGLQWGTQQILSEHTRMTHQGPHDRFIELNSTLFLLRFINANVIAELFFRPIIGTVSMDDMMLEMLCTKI
Photoreceptor-specific nuclear receptor, sequence (Q9Y5X4 whole entry, the tested form may be a part): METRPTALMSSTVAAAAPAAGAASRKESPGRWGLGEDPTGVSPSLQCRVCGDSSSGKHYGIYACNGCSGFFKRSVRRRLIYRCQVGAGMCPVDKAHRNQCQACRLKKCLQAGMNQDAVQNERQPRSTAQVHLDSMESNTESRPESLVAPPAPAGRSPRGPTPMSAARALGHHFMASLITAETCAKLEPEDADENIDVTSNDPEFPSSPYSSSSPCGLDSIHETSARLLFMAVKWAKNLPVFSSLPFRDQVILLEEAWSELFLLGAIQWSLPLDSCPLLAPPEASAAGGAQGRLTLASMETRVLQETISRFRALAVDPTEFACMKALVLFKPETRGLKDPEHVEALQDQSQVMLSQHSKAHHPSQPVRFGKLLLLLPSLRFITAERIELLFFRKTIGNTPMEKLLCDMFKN
Lysine-specific demethylase 4A, sequence (O75164 whole entry): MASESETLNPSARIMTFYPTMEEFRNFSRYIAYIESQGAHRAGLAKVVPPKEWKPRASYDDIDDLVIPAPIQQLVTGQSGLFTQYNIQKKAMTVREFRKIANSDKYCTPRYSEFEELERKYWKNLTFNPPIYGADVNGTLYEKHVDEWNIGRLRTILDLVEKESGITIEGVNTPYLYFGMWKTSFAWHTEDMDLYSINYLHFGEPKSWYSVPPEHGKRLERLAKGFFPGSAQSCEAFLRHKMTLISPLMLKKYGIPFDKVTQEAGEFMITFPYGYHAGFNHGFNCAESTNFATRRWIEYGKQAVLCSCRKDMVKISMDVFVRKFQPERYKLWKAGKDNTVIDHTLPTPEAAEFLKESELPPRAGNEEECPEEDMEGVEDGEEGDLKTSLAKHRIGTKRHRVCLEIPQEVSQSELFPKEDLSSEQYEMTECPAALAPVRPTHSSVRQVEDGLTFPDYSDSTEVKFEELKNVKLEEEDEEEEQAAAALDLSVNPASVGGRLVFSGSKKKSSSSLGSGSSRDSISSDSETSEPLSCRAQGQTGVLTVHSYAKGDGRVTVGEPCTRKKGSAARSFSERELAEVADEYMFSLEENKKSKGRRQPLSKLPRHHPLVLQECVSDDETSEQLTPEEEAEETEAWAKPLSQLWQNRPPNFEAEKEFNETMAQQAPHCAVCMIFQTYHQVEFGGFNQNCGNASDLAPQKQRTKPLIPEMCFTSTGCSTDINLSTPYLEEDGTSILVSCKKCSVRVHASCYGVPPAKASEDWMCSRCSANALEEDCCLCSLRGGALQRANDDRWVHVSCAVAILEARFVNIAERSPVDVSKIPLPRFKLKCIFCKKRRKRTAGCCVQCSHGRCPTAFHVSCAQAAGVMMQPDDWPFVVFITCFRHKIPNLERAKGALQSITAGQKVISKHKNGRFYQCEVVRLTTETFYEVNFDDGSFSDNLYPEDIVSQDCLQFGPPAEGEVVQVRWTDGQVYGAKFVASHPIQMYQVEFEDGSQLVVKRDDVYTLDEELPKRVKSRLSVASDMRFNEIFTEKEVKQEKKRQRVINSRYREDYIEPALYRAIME
Paired box protein Pax-8, sequence (Q06710 whole entry, the tested form may be a part): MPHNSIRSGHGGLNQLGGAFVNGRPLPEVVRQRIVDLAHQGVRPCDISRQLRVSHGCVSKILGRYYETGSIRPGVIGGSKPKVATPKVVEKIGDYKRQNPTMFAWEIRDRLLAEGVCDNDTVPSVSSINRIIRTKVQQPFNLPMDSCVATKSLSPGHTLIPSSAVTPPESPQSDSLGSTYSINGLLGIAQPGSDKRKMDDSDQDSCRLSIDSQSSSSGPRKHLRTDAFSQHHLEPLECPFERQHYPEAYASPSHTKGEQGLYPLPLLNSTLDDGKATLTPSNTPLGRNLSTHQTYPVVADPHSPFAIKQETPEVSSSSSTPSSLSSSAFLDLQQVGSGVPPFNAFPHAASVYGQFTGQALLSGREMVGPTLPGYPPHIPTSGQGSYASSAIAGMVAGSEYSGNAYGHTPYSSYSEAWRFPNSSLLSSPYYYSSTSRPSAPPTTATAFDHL
Luciferin 4-monooxygenase, sequence (P08659 whole entry): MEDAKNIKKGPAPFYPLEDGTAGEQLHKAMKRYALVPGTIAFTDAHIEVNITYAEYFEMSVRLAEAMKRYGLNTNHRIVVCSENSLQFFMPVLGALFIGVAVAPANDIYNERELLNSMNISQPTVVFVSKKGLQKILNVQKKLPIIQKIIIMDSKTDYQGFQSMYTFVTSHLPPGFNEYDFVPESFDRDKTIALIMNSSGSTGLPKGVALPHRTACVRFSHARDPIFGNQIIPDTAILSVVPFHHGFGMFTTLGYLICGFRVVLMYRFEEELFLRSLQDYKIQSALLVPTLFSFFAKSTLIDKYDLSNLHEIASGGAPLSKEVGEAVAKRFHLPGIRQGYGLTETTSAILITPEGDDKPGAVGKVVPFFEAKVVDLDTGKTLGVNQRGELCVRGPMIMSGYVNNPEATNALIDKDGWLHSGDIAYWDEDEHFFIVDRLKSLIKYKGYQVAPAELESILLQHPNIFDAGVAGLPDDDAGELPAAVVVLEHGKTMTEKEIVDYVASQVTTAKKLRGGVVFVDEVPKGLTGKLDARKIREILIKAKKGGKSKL

In the case of COc1ccccc1C(=O)Nc1nc2ccccc2[nH]1, the AC50 [1] was 0.555 µM (active), the AC50 [2] was 0.253 µM (active) and the AC50 [3] was 0.879 µM (active). For the same compound, the AC50 [4] was 1.69 µM (active), the EC50 [5] was 0.607 µM (inconclusive) and the AC50 [6] was 1.79 µM (active). For the same compound, the AC50 [7] was 2.04 µM (active), the AC50 [8] was 1.41 µM (active) and the AC50 [9] was 1.71 µM (active). The AC50 [10] was 6.08 µM (active), the EC50 [11] was 0.734 µM (active) and the EC50 [12] was 1.83 µM (inconclusive). The IC50 [13] was 0.57 µM (active), the AC50 [14] was 6.57 µM (active) and the AC50 [15] was 6.26 µM (active). The AC50 [16] was 1.29 µM (active), the EC50 [17] was > 133 µM (inactive) and the EC50 [18] was 0.802 µM (inconclusive). The EC50 [19] was 0.159 µM (active), the EC50 [20] was 0.196 µM (active) and the IC50 [21] was > 80 µM (inactive). For the same compound, the AC50 [22] was 2.33 µM (active), the AC50 [23] was 0.217 µM (active) and the AC50 [24] was 0.868 µM (active). For the same compound, the IC50 [25] was 3.25 µM (active) and the AC50 [26] was 2.57 µM (active).
With COc1ccc(S(=O)(=O)N(C)C[C@@H]2Oc3c(NC(=O)Nc4ccc(F)cc4)cccc3C(=O)N([C@H](C)CO)C[C@H]2C)cc1 the AC50 [27] was 41.7 µM (active).
For C[C@@H](CN1CCC[C@H]1CN1C(N)=NC[C@@H]1Cc1ccccc1)N1C[C@@H](Cc2ccccc2)N(CCc2ccc(Cl)c(Cl)c2)C1=N, the IC50 [28] was > 20 µM (inactive), the AC50 [29] was 9.21 µM (active) and the AC50 [30] was 15.6 µM (active). For the same compound, the AC50 [31] was 24.1 µM (active).
In the case of Cc1cc(NC(=O)c2cc3cccc([N+](=O)[O-])c3[nH]2)ccc1F, the IC50 [32] was > 67.5 µM (inactive) and the IC50 [33] was > 67.5 µM (inactive).
With O=C(c1cc(-c2ccc(O)cc2)on1)N1CCN(c2ccccc2)CC1 the AC50 [34] was 23.1 µM (active) and the AC50 [35] was 2.89 µM (active).

Source: ChEMBL document CHEMBL1201862, “PubChem BioAssay data set” (2004)
